Experiment [1] relates to L. reuteri ATCC 55730. In words: MIC on MRS plates containing lincomycin or clindamycin. The note with it: Limosilactobacillus reuteri, ATCC55730, strain ATCC 55730, anaerobic, 37° C., 24 h. It counts as cell-based, Lactobacillus reuteri. How it is done:
(§1) The bacteria were grown in MRS broth for 16 h at 37° C. […] After adsorption of the drops, the plates were incubated in anaerobic atmosphere at 37° C. for 24 h. The MIC was defined as the lowest antibiotic concentration for which there was no visible bacterial growth.

The test system of experiment [2] is L. reuteri DSM 17686. The description is as above. The note with it: 37° C., 24 h. The experiment is classed as cell-based, Lactobacillus reuteri. How it is done:
as §1

Experiment [3] concerns L. reuteri DSM 17938. Described as above. The experiment is classed as cell-based, Lactobacillus reuteri. The note with it: strain DSM 17938, anaerobic, 37° C. How it is done:
as §1

The subject of experiment [4] is L. reuteri DSM 20016. The experiment is described as above. The note with it: Limosilactobacillus reuteri, DSM20016, strain DSM 20016 (negative control), anaerobic, 37° C., 24 h. The experiment is classed as cell-based, Lactobacillus reuteri. The procedure:
as §1

Experiment [5] relates to 1063. Described as above. It counts as cell-based. Conditions: strain 1063, anaerobic, 37° C., 24 h. How it is done:
as §1

Experiment [6] has as its system L. reuteri ATCC 55730. In words: MIC to tetracycline with Etest. It counts as cell-based, Lactobacillus reuteri. Conditions: Limosilactobacillus reuteri, ATCC55730; strain ATCC 55730; MRS agar; read-out: MIC to tetracycline (E-test). The procedure:
(§2) The bacteria were grown in MRS broth for 16 h at 37° C. After dilution to 10^5 cfu ml^−1, 1 μl of each bacterial strain was spotted on MRS plates containing lincomycin or clindamycin (concentrations 0, 0.125, 0.25, 0.5, 1, 2, 4, 8 and 16 μg ml^−1). After adsorption of the drops, the plates were incubated in anaerobic atmosphere at 37° C. for 24 h. The MIC was defined as the lowest antibiotic concentration for which there was no visible bacterial growth. MICs to tetracycline were tested with Etest (AB Biodisk) on bacteria growing on MRS agar (Oxoid) plates according to the instructions from the manufacturer.

Experiment [7] deals with L. reuteri DSM 17686. The experiment can be described thus: MIC to tetracycline with Etest. It counts as cell-based, Lactobacillus reuteri. The note with it: strain DSM 17686; MRS agar. How it is done: as §2
The subject of experiment [8] is L. reuteri DSM 17938. In words: MIC to tetracycline with Etest. It counts as cell-based, Lactobacillus reuteri. Conditions: strain DSM 17938; MRS agar. The procedure:
as §2

Where [9] appears, read: Limosilactobacillus reuteri, DSM17686, strain DSM 17686, anaerobic, read-out: MIC.
[10] abbreviates: Limosilactobacillus reuteri, DSM17938, 24 h, read-out: MIC.

Values after ≈ are worked out from the molar mass of the structure shown. Read-outs that look alike come from different tables or passages of the source.

In general, MIC refers to the least concentration at which growth counts as inhibited. For `CCC[C@@H]1C[C@@H](C(=O)N[C@@H]([C@H]2O[C@H](SC)[C@H](O)[C@@H](O)[C@H]2O)[C@H](C)Cl)N(C)C1` [clindamycin], the minimal inhibitory concentration (MIC) in experiment [1] was below 0.125 µg/mL; in experiment [2] (setting [9]) it was below 0.125 µg/mL; in experiment [3] (setting [10]) it was below 0.125 µg/mL; in experiment [4] it was below 0.125 µg/mL; in experiment [5] it was above 16 µg/mL.
Take `CCC[C@@H]1C[C@@H](C(=O)N[C@@H]([C@H]2O[C@H](SC)[C@H](O)[C@@H](O)[C@H]2O)[C@@H](C)O)N(C)C1` [lincomycin]: the minimal inhibitory concentration (MIC) was above 16 µg/mL in experiment [1]; above 16 µg/mL in experiment [2] (setting [9]); above 16 µg/mL in experiment [2] (strain DSM 17686, anaerobic); 0.25 µg/mL (≈ 0.615 µM) in experiment [3] (setting [10]); 0.5 µg/mL (≈ 1.23 µM) in experiment [3] (24 h); 0.25 µg/mL (≈ 0.615 µM) in experiment [4]. Further, the MIC in experiment [5] is above 16 µg/mL.
Regarding `CN(C)[C@@H]1C(O)=C(C(N)=O)C(=O)[C@@]2(O)C(O)=C3C(=O)c4c(O)cccc4[C@@](C)(O)[C@H]3C[C@@H]12` [tetracycline], in experiment [6], the MIC was above 256 µg/mL. For the same molecule, the “MIC to tetracycline (E-test)” value in experiment [7] and in experiment [8] was 12-16 μml-1 throughout.

Values taken from patent publication US8603460B2, “Method of making a Lactobacillus reuteri with increased acid tolerance” (Brogaia AB, priority 2006, dated 2013).
